# Where “and” joins values, the source holds several entries; their conditions need not be identical. Equal values may be shown once. Read-outs that look alike come from different tables or passages of the source.
# Legend:
# [1] = system: IL-2 production by T cells; test: PHA-induced IL-2 production, wilforonide (924); format: cell-based, human; settings: for IL-2, mean: control 21.395
# Procedure: The effects of wilforonide on IL-2 production was also examined. […] Cell-free supernatants were diluted 1 to 80 and the IL-2 content assayed with CTLL-2 cells.
# [2] = system: T cells; test: Antigen (SK)-induced T cell proliferation, wilforonide; format: cell-based, human; settings: for IC50: 120 h, read-out: ID50, antigen-induced T cell proliferation; for IC50 / inhibition at 0.01 µg/mL: 5 days
# Procedure: The cells were allowed to culture for five days. The cultures were pulsed with [^3 H]-thymidine for the last 24 hours of culture. […] ID50 were calculated based on the regression formula by using the fx-3600 calculator. T cells cultured with SK or SK+IL-2 or SK+PMA gave cpm of 1.87×10^3, 4.99×10^3 and 6.67×10^3, respectively.
# *T cells were cultured with or without SK(1 mg/ml) or SK plus IL2(50
# μ/ml) or SK plus PMA(.2 ng/ml) in the presence or absence of indicated
# concentrations of wilforonide for 5 days. Cultures were pulsed with
# [^3 H]-thymidine for the last 24 hours. Data represent the mean of th
# experiments. ID50 were calculated based on the regression formula by
# using the fx3600 calculator. T cells cultured with SK or SL + IL2 or SK +
# [3] = system: T cells; test: PHA-induced T cell proliferation, wilforonide (924); format: cell-based, human; settings: for Mean cpm: control 42.0
# Source text: The molecular groups responsible for the immune suppressive function of these compounds are unknown, however, the core structure of diterpenoids which may be related to their activity consists of an α-β-unsaturated 5 element lactone which can be identified by Kedde reagents. HPLC was used to fractionate the ethyl acetate extract of TwHF and the Kedde reagents were employed to trace the fractions. Then, the effect of selected fractions on the in vitro IL-2 production and [^3 H]-thymidine incorporation by PHA-activated T cells was determined. Fractions that inhibit these T cell functions were selected and the chromatographic pattern was identified with HPLC. One fraction was further purified with HPLC and crystallized repeatedly; a pure, crystallized compound was obtained and designated "924".
# [^3 H]-thymidine was added for the last 14 hours of culture. Each concentration was run in quadruplicate (4 times) and the results for each concentration averaged to provide a mean. The mean cpm×10^3 values were combined and expressed as a percent of T cell inhibition.
# or absence of the indicated concentrations of wilforonide for 3 days.
# [^3 H]-Thymidine was added for the last 14 hours. Data are from 4
# independent experiments.
# [4] = Viability of PHA-stimulated T cells, 924; format: cell-based, human; settings: t cells; 1,000 ng/ml; 0 ng/ml=22% of control; FIG. 20D; read-out: Cell viability, % of control
# [5] = system: PHA-stimulated T cells; test: Viability of PHA-stimulated T cells, 924; format: cell-based, human
# [6] = Solubility of 924; format: physicochemical
# Procedure: The dried woody skinned part of the root of TwHF was extracted with ethanol. The solution was concentrated at reduced pressure, and the residue was dissolved in ethyl acetate. This solution was passed through Al2 O3 with ethanol as an eluent. The eluate was evaporated and the residue chromatographed on silica gel with chloroform, chloroform-ether and ethyl acetate as successive eluent. The fractions eluted with chloroform-ether were purified on a preparative HPLC column packed with Nova-Pak C18 and equipped with a 214 detector. Methanol-water was the mobile phase. A fraction having positive reaction to Kedde reagent was collected and extracted with chloroform. The chloroform solution was evaporated to dryness and the residue crystallized in dichloromethane-hexane to yield 924.
# [7] = system: T cells; test: Antigen (SK)-induced T cell proliferation, wilforonide; format: cell-based; settings: Homo sapiens, read-out: % inhibition of [3H]-thymidine incorporation
# [8] = system: IL-2R; test: IL-2R expression by PHA-activated T cells, 924; format: cell-based, human
smiles,measurement,setting,value
"C[C@]12CCC3=C(COC3=O)[C@@H]1CCC(=O)C2 (relative stereo) [Wilforonide, naphtho-[1,2-c] furan-3,7(1H,5H)-dione, 4,5a,6,8,9,9a-hexahydro-5a-methyl(5aR-trans)-[104331-87-5]]","IL-2, individual experiments 1-4","[1]; 10 ng/ml, PHA 1 μg/ml, overnight",1.628 unit/ml and 20.723 unit/ml and 27.374 unit/ml and 3.385 unit/ml
same,"IL-2, mean",[1]; 10 ng/ml,13.278 unit/ml
same,"IL-2, individual experiments 1-4",[1]; 50 ng/ml,1.664 unit/ml and 26.983 unit/ml and 4.509 unit/ml and 6.042 unit/ml
same,"IL-2, mean",[1]; 50 ng/ml,9.795 unit/ml
same,"IL-2, individual experiments 1-4",[1]; 100 ng/ml,0.800 unit/ml and 11.160 unit/ml and 10.170 unit/ml and 4.982 unit/ml
same,"IL-2, mean",[1]; 100 ng/ml,6.803 unit/ml
same,"IL-2, individual experiments 1-4",[1]; 200 ng/ml,0.850 unit/ml and 10.301 unit/ml and 8.502 unit/ml and 1.773 unit/ml
same,"IL-2, mean",[1]; 200 ng/ml,5.357 unit/ml
same,inhibition at 0.01 µg/mL,"[1]; Homo sapiens, T-cell, 10 ng/ml",37.9%
same,inhibition at 0.05 µg/mL,"[1]; Homo sapiens, T-cell, 50 ng/ml",54.2%
same,inhibition at 0.1 µg/mL,"[1]; Homo sapiens, T-cell, 100 ng/ml",68.2%
same,inhibition at 0.2 µg/mL,"[1]; Homo sapiens, T-cell, 200 ng/ml",75%
same,IC50,"[1]; Homo sapiens, T-cell, PHA 1 μg/ml, overnight, read-out: ID50, PHA-induced IL-2 production",0.0421 µg/mL
same,IC50,"[2]; Homo sapiens, T-cell, SK + IL-2 (50 u/ml)",0.476 µg/mL
same,IC50,"[2]; Homo sapiens, T-cell, SK + PMA (0.2 ng/ml)",0.613 µg/mL
same,IC50,"[2]; Homo sapiens, T-cell, SK",0.127 µg/mL
same,inhibition at 0.01 µg/mL,"[2]; Homo sapiens, T-cell, SK + IL-2, 10 ng/ml, read-out: % inhibition of [3H]-thymidine incorporation",19.6%
same,inhibition at 0.5 µg/mL,"[2]; Homo sapiens, T-cell, SK + IL-2, 500 ng/ml, read-out: % inhibition of [3H]-thymidine incorporation",61.7%
same,inhibition at 0.01 µg/mL,"[2]; Homo sapiens, T-cell, SK + PMA, 10 ng/ml, read-out: % inhibition of [3H]-thymidine incorporation",22.7%
same,inhibition at 0.05 µg/mL,"[2]; Homo sapiens, T-cell, SK + PMA, 50 ng/ml, read-out: % inhibition of [3H]-thymidine incorporation",17.7%
same,inhibition at 0.5 µg/mL,"[2]; Homo sapiens, T-cell, SK + PMA, 500 ng/ml, read-out: % inhibition of [3H]-thymidine incorporation",53.3%
same,inhibition at 0.01 µg/mL,"[2]; Homo sapiens, T-cell, SK, 10 ng/ml, read-out: % inhibition of [3H]-thymidine incorporation",42.1%
same,Inhibition of response to SK on adding IL2 or PMA,[2]; low concentrations,partially overcome by adding IL2 or PMA
same,"cpm, individual experiments 1-4","[3]; 10 ng/ml, PHA 0.5 μg/ml, 3 days",23.5 cpm × 10^3 and 37.1 cpm × 10^3 and 57.5 cpm × 10^3 and 36.3 cpm × 10^3
same,Mean cpm,[3]; 10 ng/ml,38.6 cpm × 10^3
same,"cpm, individual experiments 1-4",[3]; 50 ng/ml,30.2 cpm × 10^3 and 35.3 cpm × 10^3 and 57.0 cpm × 10^3 and 44.8 cpm × 10^3
same,Mean cpm,[3]; 50 ng/ml,41.8 cpm × 10^3
same,"cpm, individual experiments 1-4",[3]; 100 ng/ml,13.0 cpm × 10^3 and 37.6 cpm × 10^3 and 55.2 cpm × 10^3 and 26.7 cpm × 10^3
same,Mean cpm,[3]; 100 ng/ml,33.1 cpm × 10^3
same,"cpm, individual experiments 1-4",[3]; 200 ng/ml,6.8 cpm × 10^3 and 33.9 cpm × 10^3 and 56.5 cpm × 10^3 and 26.4 cpm × 10^3
same,Mean cpm,[3]; 200 ng/ml,30.9 cpm × 10^3
same,"cpm, individual experiments 1-4",[3]; 500 ng/ml,0.3 cpm × 10^3 and 19.7 cpm × 10^3 and 30.9 cpm × 10^3 and 11.3 cpm × 10^3
same,Mean cpm,[3]; 500 ng/ml,15.6 cpm × 10^3
same,T cell proliferation,"[3]; 1,000 ng/ml, FIG. 20C",no cell proliferation was evident
same,inhibition at 0.01 µg/mL,"[3]; Homo sapiens, T-cell, 72 h, 10 ng/ml, PHA 0.5 μg/ml, 3 days",8.09%
same,IC50,"[3]; Homo sapiens, T-cell, 72 h, PHA 0.5 μg/ml, 3 days, read-out: ID50, PHA-induced T cell proliferation",0.391 µg/mL
same,inhibition at 0.001 µg/mL,"[3]; Homo sapiens, T-cell, 1 ng/ml, PHA, read-out: Degree of inhibition of T cell proliferation",14.6%
same,inhibition at 0.05 µg/mL,"[3]; Homo sapiens, T-cell, 50 ng/ml, PHA",0.48%
same,inhibition at 0.1 µg/mL,"[3]; Homo sapiens, T-cell, 100 ng/ml, PHA, read-out: % inhibition",21.2%
same,inhibition at 0.1 µg/mL,"[3]; Homo sapiens, T-cell, 100 ng/ml, PHA, read-out: Degree of inhibition of T cell proliferation",54.2%
same,inhibition at 0.2 µg/mL,"[3]; Homo sapiens, T-cell, 200 ng/ml, PHA",26.4%
same,inhibition at 0.5 µg/mL,"[3]; Homo sapiens, T-cell, 500 ng/ml, PHA",62.9%
same,viability,[4],35%
same,Viability of PHA-stimulated T cells,[5]; 1 ng/ml up to 1000 ng/ml,did not affect the viability of PHA-stimulated T cells
same,Cell viability,[5]; 1 to 500 ng/ml,did not differ significantly in terms of cell viability
same,in vitro ID50/LD50 of T cell proliferation,[5]; t cells,more than 10
same,Solubility,[6],"soluble in ethanol, and ethanol and chloroform"
same,inhibition at 0.05 µg/mL,"[7]; SK + IL-2, 50 ng/ml",12.4%
same,inhibition at 0.1 µg/mL,"[7]; SK + IL-2, 100 ng/ml",14.5%
same,inhibition at 1 µg/mL,"[7]; SK + IL-2, 1,000 ng/ml",86.2%
same,inhibition at 0.1 µg/mL,"[7]; SK + PMA, 100 ng/ml",20.3%
same,inhibition at 1 µg/mL,"[7]; SK + PMA, 1,000 ng/ml",65.4%
same,inhibition at 0.05 µg/mL,"[7]; SK, 50 ng/ml",44.5%
same,inhibition at 0.1 µg/mL,"[7]; SK, 100 ng/ml",49.1%
same,inhibition at 0.5 µg/mL,"[7]; SK, 500 ng/ml",75.2%
same,inhibition at 1 µg/mL,"[7]; SK, 1,000 ng/ml",84.2%
same,IL-2R expression,[8]; 500 ng/ml,did not affect the IL-2R expression
same,IL-2R expression,[8]; PHA-activated T cells,no effect

# — patent US5846742A, “Selecting substances for treating glucocorticoid-mediated inflammation or immune diseases using Tripterygium wilfordii Hook F extracts” (Board of Regents, The University of Texas System, priority 1997, dated 1998)
